Experiment [1] concerns the target T1, LPAAT-β (Homo sapiens, UniProt O15120).
T1 sequence (O15120 24-278): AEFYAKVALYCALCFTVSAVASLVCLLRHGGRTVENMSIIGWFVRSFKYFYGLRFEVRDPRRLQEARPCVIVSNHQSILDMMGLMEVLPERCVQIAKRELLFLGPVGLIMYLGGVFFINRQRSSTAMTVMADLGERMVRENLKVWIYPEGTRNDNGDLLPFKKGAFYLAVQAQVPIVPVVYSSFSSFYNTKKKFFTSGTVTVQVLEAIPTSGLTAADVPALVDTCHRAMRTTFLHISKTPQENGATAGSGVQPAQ
In words: DTNB (Ellman's reagent) 96-well plate screening assay of LPAAT-β enzymatic activity. The experiment is classed as biochemical. Details: The assay utilizes full-length, recombinant, baculovirus-produced LPAAT-β; made in house. How it is done: Screening with a modified screening assay in 96-well plate format for LPAAT-β enzymatic activity was performed as reported by Aguado and Campbell (Aguado et al., Characterization of a human lysophosphatidic acid acyltransferase that is encoded by a gene located in the class III region of the human major histocompatibility complex. J. Biol. Chem. 1998, 273, 4096-105).
The assay utilizes full-length, recombinant, baculovirus-produced LPAAT-β, which catalyzes the production of dioleoyl-[…] from the enzymatic substrates oleoyl-lysophosphatidic acid (LPA) and oleoyl-coenzyme A (Scheme 2). The ability of the compound to inhibit the LPAAT-β activity was assayed by the colorimetric measurement of the reaction of the free thiol group of the released coenzyme A with Ellman's reagent [5,5′-dithiobis-(2-nitrobenzoic acid) or DTNB] (Riener et al., Quick measurement of protein sulfhydryls with Ellman's reagent and with 4,4′-dithiodipyridine. Anal. Bioanal. Chem. 2002, 373, 266-76). […] A hit identified from the Life Chemicals library 6a (IC50 100 nM) was selected for further investigation.
On the technique in general: DTNB colorimetry detects thiols as they appear.

For experiment [2], the target named is T1, LPAAT-β. In words: secondary thin layer chromatography (TLC) assay measuring fluorescent PA. The class given is biochemical. On the set-up: The assay utilizes full-length, recombinant, baculovirus-produced LPAAT-β; made in house.
Setting [3] is: read-out: IC50 (μM) (DTNB assay) (converted).
Setting [4] is: Table 4, read-out: IC50 (μm) (DTNB assay) (converted).

Experimental findings from patent US20170027893A1, “THIOSEMICARBAZONES INHIBITORS OF LYSOPHOSPHATIDIC ACID ACYLTRANSFERASE AND USES THEREOF” (H. LEE CANCER CENTER AND RESEARCH INSTITUTE, INC., priority 2014, published 2017) are described below.

SMILES strings stand for the structures. Where “and” joins values, the source holds several entries; their conditions need not be identical. Equal values may be shown once. Bounds are passed on as bounds.

As for `NC(=S)NN=Cc1cccc(F)c1O` [Compound 6e], the IC50 was 4.3 µM at LPAAT-β [1] (setting [3]) and over 10 µM on LPAAT-β [2].

With `NC(=S)NN=Cc1cccc(C(F)(F)F)c1O` [Compound 6i], the IC50 is 7 µM at LPAAT-β [1] (setting [3]) and over 10 µM at LPAAT-β [2].

Take `CCCCc1cccc(C=NNC(N)=S)c1O` [Compound 6o]: at LPAAT-β [2], the IC50 was over 10 µM.

On to `CCCc1cccc(C=NNC(N)=S)c1O` [Compound 6k], for which the 50% inhibitory concentration (IC50) on LPAAT-β [2] stood at 19 ± 11 µM.

As to `C=CCc1cccc(C(C)=NNC(N)=S)c1O` [Compound 15b], the values for the IC50 at LPAAT-β [1] (setting [3]) and at LPAAT-β [2] were 0.52 ± 0.25 µM and over 10 µM, respectively.

As to `C=CCc1cc(CCCCC)cc(C(C)=NNC(N)=S)c1O` [Compound 19j], the IC50 on LPAAT-β [1] (setting [4]) was 0.19 µM; at LPAAT-β [2] (Table 4), 3.2 µM.

Turning to `NC(=S)NN=Cc1cccc(Cl)c1O` [Compound 6f], the IC50 at LPAAT-β [1] (setting [3]) was 2 µM; on LPAAT-β [2], over 10 µM.

For the compound `NC(=S)NN=Cc1cccc(C2CCCCC2)c1O` [Compound 6n], the IC50 was over 100 µM at LPAAT-β [1] (setting [3]) and over 10 µM on LPAAT-β [2].

`C=CCc1cc(C(C)=O)cc(C(C)=NNC(N)=S)c1O` [Compound 19l]: the IC50 was 2.67 ± 0.25 µM at LPAAT-β [1] (setting [3]) and over 10 µM on LPAAT-β [2].

On to `CC(=NNC(N)=S)c1cc(Cl)cc(Cl)c1O` [Compound 15f], for which the results for the IC50 on LPAAT-β [1] (setting [3]) and on LPAAT-β [2] were 0.27 µM and over 10 µM, respectively.

For the compound `C=CCc1cc(C(C)(C)C)cc(C(C)=NNC(N)=S)c1O` [Compound 19i], the figures for the IC50 at LPAAT-β [1] (setting [4]) and on LPAAT-β [2] (Table 4) were 0.31 µM and 1.3 µM, respectively.

On to `C=CCc1cc(Br)cc(C(C)=NNC(N)=S)c1O` [Compound 19c], for which the results for the IC50 on LPAAT-β [1] (setting [4]) and on LPAAT-β [2] (Table 4) were 0.1 µM and 4.1 µM, respectively.

With `C=CCc1cc(-c2ccc(F)cc2)cc(C(C)=NNC(N)=S)c1O` [Compound 19q], the IC50 was 0.29 ± 0.06 µM on LPAAT-β [1] (setting [4]) and 5.1 ± 3 µM on LPAAT-β [2] (Table 4).

`C=CCc1cc(F)cc(C(C)=NNC(N)=S)c1O` [Compound 19b]: the results for the IC50 on LPAAT-β [1] (setting [4]) and at LPAAT-β [2] (Table 4) were 0.24 µM and 24 µM, respectively.

On to `NC(=S)N/N=C/c1cccc2c1oc1ccccc12` [Compound 6t], for which the “LPAAT-β inhibitory activity in words (assay not given)” value at LPAAT-β [1] is “inactive”.

Regarding `C=CCc1cccc(C=NN=c2scc(-c3ccccc3)n2C)c1O` [Compound 11a], the “LPAAT-β inhibitory activity in words (assay not given)” value on LPAAT-β [1] was “inactive”. For the same compound, the 50% inhibitory concentration (IC50) was over 100 µM on LPAAT-β [1] (setting [3]) and over 10 µM on LPAAT-β [2].

Take `CCOc1cccc(C=NNC(N)=S)c1O` [Compound 6d]: on LPAAT-β [1], the “LPAAT-β inhibitory activity in words (assay not given)” value is “inactive”. Further, the IC50 is over 100 µM at LPAAT-β [1] (setting [3]) and over 10 µM at LPAAT-β [2].

On to `NC(=S)N/N=C/c1ccc2ccccc2c1O` [Compound 6s], for which, on LPAAT-β [1] (setting [3]), the IC50 was 6.4 ± 4.7 µM.

As to `CCCc1cccc(C=NN=c2scc(-c3ccccc3)n2C)c1O` [Compound 11b], at LPAAT-β [1], the “LPAAT-β inhibitory activity in words (assay not given)” value was “inactive”. Moreover, the IC50 is over 100 µM on LPAAT-β [1] (setting [3]) and over 10 µM at LPAAT-β [2].

Take `CCCc1cccc(C=NNC(=S)NC)c1O` [Compound 10b]: the half-inhibitory concentration (IC50) at LPAAT-β [1] (setting [3]) was 14 ± 12 µM; at LPAAT-β [2], over 10 µM.

Take `CC(C)c1cccc(C=NNC(N)=S)c1O` [Compound 6l]: the half-maximal inhibitory concentration (IC50) on LPAAT-β [1] (setting [3]) was 13 ± 8.4 µM; at LPAAT-β [2] it was 30 µM.

Regarding `C=CCc1cc(Cl)cc(C(C)=NNC(N)=S)c1O` [Compound 15d], the IC50 at LPAAT-β [1] (setting [3]) is 0.2 µM; on LPAAT-β [2], 32 µM.

In the case of `C=CCc1cc(-c2ccc(C#N)cc2)cc(C(C)=NNC(N)=S)c1O` [Compound 19u], the IC50 at LPAAT-β [1] (setting [4]) is 0.4 ± 0.19 µM; on LPAAT-β [1] (setting [3]) it was 0.36 ± 0.1 µM; at LPAAT-β [2] (Table 4), 1 ± 0.9 µM.

For the compound `CCCCCCCc1cccc(C=NNC(N)=S)c1O` [Compound 6q], the IC50 at LPAAT-β [1] (setting [3]) is over 100 µM; on LPAAT-β [2], 9.7 µM.

On to `NC(=S)NN=Cc1cccc(-c2ccccc2)c1O` [Compound 6m], for which the IC50 is 40 ± 10 µM on LPAAT-β [1] (setting [3]) and over 10 µM at LPAAT-β [2].

For the compound `C=CCc1cc(C(C)C)cc(C(C)=NNC(N)=S)c1O` [Compound 19g], the IC50 on LPAAT-β [1] (setting [4]) was 0.16 µM; on LPAAT-β [2] (Table 4), 1.4 µM.

As for `Cc1cccc(C=NNC(N)=S)c1O` [Compound 6h], the IC50 at LPAAT-β [1] (setting [3]) is 7.5 µM; at LPAAT-β [2] it was over 10 µM.

As for `C=CCc1cc(CCCCCC)cc(C(C)=NNC(N)=S)c1O` [Compound 19k], the IC50 at LPAAT-β [1] (setting [4]) is 0.24 µM; at LPAAT-β [1] (setting [3]), 17 ± 7.3 µM; at LPAAT-β [2], 3.2 ± 1.6 µM; on LPAAT-β [2] (Table 4), 5.2 µM.

As to `CCCc1cccc(C=NNC(=S)NC(=O)c2ccccc2)c1O` [Compound 10c], the “LPAAT-β inhibitory activity in words (assay not given)” value on LPAAT-β [1] is “inactive”. In addition, at LPAAT-β [1] (setting [3]), the IC50 is over 100 µM.

As to `C=CCc1cccc(C=NNC(=S)NC)c1O` [Compound 10a], the IC50 is 3.9 ± 2.3 µM on LPAAT-β [1] (setting [3]) and over 10 µM on LPAAT-β [2].

`C=CCc1cc(-c2ccccc2)cc(C(C)=NNC(N)=S)c1O` [Compound 19n]: the IC50 at LPAAT-β [1] (setting [3]) was 1.15 µM and 0.19 µM; at LPAAT-β [2], 5.7 ± 2.5 µM.

As for `CCc1cccc(C(C)=NNC(N)=S)c1O` [Compound 15c], the IC50 on LPAAT-β [1] (setting [3]) is 0.73 ± 0.76 µM; on LPAAT-β [2], over 10 µM.

Take `NC(=S)NN=Cc1cccc(CCCc2ccccc2)c1O` [Compound 6r]: the IC50 on LPAAT-β [1] (setting [3]) is over 100 µM.

Take `CCCCCc1cccc(C=NNC(N)=S)c1O` [Compound 6p]: the IC50 was over 100 µM at LPAAT-β [1] (setting [3]) and over 10 µM at LPAAT-β [2].

Regarding `C=CCc1cc(C#N)cc(C(C)=NNC(N)=S)c1O` [Compound 19d], the IC50 is 0.46 µM on LPAAT-β [1] (setting [4]) and over 10 µM at LPAAT-β [2] (Table 4).

On to `C=CCc1cc(CC(=O)OC)cc(C(C)=NNC(N)=S)c1O` [Compound 19m], for which the IC50 at LPAAT-β [1] (setting [4]) is 1.15 µM.

As for `C=CCc1cc(CCC)cc(C(C)=NNC(N)=S)c1O` [Compound 19f], the IC50 was 0.27 µM at LPAAT-β [1] (setting [4]) and 2.4 µM on LPAAT-β [2] (Table 4).

As for `C=CCc1cccc(/C=N/NC(N)=O)c1O` [Compound 6w], the “LPAAT-β inhibitory activity in words (assay not given)” value on LPAAT-β [1] is “inactive”.

Take `CC(=NNC(N)=S)c1cc(Cl)ccc1O` [Compound 15e]: the IC50 is 2.8 µM on LPAAT-β [1] (setting [3]) and over 10 µM on LPAAT-β [2].

For the compound `NC(=S)NN=Cc1cccc(Br)c1O` [Compound 6g], the IC50 at LPAAT-β [1] (setting [3]) is 1.5 µM; at LPAAT-β [2] it was over 10 µM.

Consider `NC(=S)NN=Cc1ccccc1O` [Compound 6b], for which, at LPAAT-β [1], the “LPAAT-β inhibitory activity in words (assay not given)” value was “inactive”. Further, the IC50 on LPAAT-β [1] (setting [3]) and at LPAAT-β [2] was over 100 µM throughout. Further, the “LPAAT-β inhibitory activity in words (TLC assay)” value at LPAAT-β [2] is “inactive”.

Take `C=CCc1cccc(C=NN=c2[nH]c(-c3ccccc3)cs2)c1O` [Compound 11c]: the IC50 at LPAAT-β [1] (setting [3]) was over 100 µM; on LPAAT-β [2], over 10 µM.

As for `C=CCc1cc(CC)cc(C(C)=NNC(N)=S)c1O` [Compound 19e], the half-inhibitory concentration (IC50) on LPAAT-β [1] (setting [4]) was 0.2 µM; on LPAAT-β [2] (Table 4) it was 1.9 µM.

In the case of `NNC(N)=S` [Thiosemicarbazide], the “LPAAT-β inhibitory activity in words (assay not given)” value at LPAAT-β [1] was “not by itself active”.

For the compound `NC(=S)NN=Cc1cccc(O)c1O` [Compound 6c], on LPAAT-β [1], the “LPAAT-β inhibitory activity in words (assay not given)” value was “inactive”. The IC50 is over 100 µM on LPAAT-β [1] (setting [3]) and over 10 µM on LPAAT-β [2].

The IC50 is the midpoint of a concentration-inhibition curve.
